From patent US20060188938A1, “Compounds for inhibiting beta-amyloid production and methods of identifying the compounds” (priority 2005, published 2006)

Experiments:
[1] = tested on: β-amyloid production by 7W WT APP751 CHO cells; experiment: Screening of dihydropyridine compounds of Table 2, Aβ1-40 and Aβ1-42 (Example 5); assay type: cell-based, Chinese hamster; details: for concentration of Aβ1-40 or Aβ1-42 compared to control: 3, 10, 30 and 100 μM, 24 hours (FIGS. 22A, 22B, 23A, 23B); for concentration of Aβ1-40 compared to control: 3 and 10 μM, 24 hours (FIG. 24)
Description: (§1) The 7W WT APP751 CHO cells were plated in 24-well cell culture plates in quadruplicate, containing 1 ml of culture medium, and treated with various calcium channel blocker compounds for 4 hours, 24 hours or 48 hours at 37° C. and 5% CO2. All test compounds were diluted in dimethyl sulfoxide (DMSO) before being added to the cultured confluent 7W WT APP751 CHO cells. The culture medium was collected and diluted 5-fold for the 4 hours assay and 50-fold for the 24 hour assay before being assayed by ELISAs for Aβ1-40 and Aβ1-42, respectively. Concentrations of Aβ1-40 and Aβ1-42, expressed in pg/ml, were determined using commercially available ELISAs (Biosource, CA) in a colorimetric assay using labeled antibodies detected spectrophotometrically.
The screening of dihydropyridine compounds was conducted according to the procedure described in Example 1. Each compound was added to confluent cells to a final concentration of 3, 10, 30 or 100 μM and tested. Each of these compounds was added to confluent cells to a final concentration of 3 μM (noted as “C” in FIG. 24) or 10 μM (noted as “B” in FIG. 24).

[2] = tested on: β-amyloid production by 7W WT APP751 CHO cells; experiment: Measurement of Aβ1-40 and Aβ1-42 by ELISA in culture medium (Example 1, calcium channel blockers); assay type: cell-based, Chinese hamster
Description: Chinese hamster ovary (CHO) cells, stably transfected with human APP751 (7W WT APP751 CHO cells) were used. See, e.g., Koo and Squazzo, J. Biol. Chem., Vol. 269, Issue 26, 17386-17389, July, 1994. The cells were maintained in DMEM medium supplemented with 10% fetal bovine serum and 1× mixture of penicillin/streptomycin/fungizone/glutamine mixture (Cambrex, MD) geneticin as selecting agent in 75 cm^2 cell culture flasks.
as §1
G-sec Inhib XIX, SKF 96365, 2-APB, felodipine, FPL, clotrimazole, tetrandrine, R24571, and econazole are available, as Calbiochem products from EMD Biosciences, Inc., La Jolla, Calif.; nilvadipine, nitrendipine and amlodipine (amlodipine besylate) are available, e.g., from Fujisawa, Osaka, Japan; thapsigargin, BAPTA-AM and TA9 (Tyrphostin A9) are available, e.g., as a Sigma product from Sigma-Aldrich Corp., St. Louis, Mo.; and felodipine, diltiazem, S(−)Bay K8644, R(+)Bay K8644, MRS 1845, SR 33805, loperamide, and isradipine are available from Tocris Cookson Inc., Ellisville, Mo.

[3] = tested on: Tg APPsw mice; details: Tg APPsw mice given ibuprofen; cited from earlier work
[4] = 30 μM, cells plated at low density, 24 hours (FIG. 1C)
[5] = 30 μM, cells plated at low density, 48 hours (FIG. 1D)

## CCOC(=O)C1=C(C)NC(C)=C(C(=O)OCC)C1c1ccccc1[N+](=O)[O-] [Example 2-29, Diethyl 1,4-dihydro-2,6-dimethyl-4-(2-nitrophenyl)pyridine-3,5-dicarboxylate]
other
  melting point: 120 to 121 °C
[1]
  concentration of Aβ1-40 or Aβ1-42 compared to control: decreased

## COc1ccc2cc1Oc1ccc(cc1)C[C@H]1c3cc(c(OC)cc3CCN1C)Oc1c(OC)c(OC)cc3c1[C@H](C2)N(C)CC3 [tetrandine, tetrandrine]
[2]; 5 μM (FIG. 4)
  concentration of Aβ1-40 compared to controls: significantly decreased
  concentration of total β-amyloid compared to controls: significantly decreased
[2]; 10 μM (FIG. 4)
  concentration of Aβ1-40 compared to controls: significantly decreased
  concentration of total β-amyloid compared to controls: significantly decreased
[2]; 20 μM (FIG. 4)
  concentration of Aβ1-40 compared to controls: significantly decreased
  concentration of total β-amyloid compared to controls: significantly decreased
[2]; 30 μM (FIG. 4)
  concentration of Aβ1-40 compared to controls: significantly decreased
  concentration of total β-amyloid compared to controls: significantly decreased

## Clc1ccccc1C(c1ccccc1)(c1ccccc1)n1ccnc1 [clotrimazole]
[2]; 20 μM (FIG. 4)
  concentration of Aβ1-40 compared to controls: significantly decreased
  concentration of total β-amyloid compared to controls: significantly decreased

## COCCOC(=O)C1=C(C)NC(C)=C(C(=O)OCCOC)C1c1ccccc1Cl [Example 2-19]
[1]
  concentration of Aβ1-40 or Aβ1-42 compared to control: decreased

## CC1=C(C(=O)OC(C)(C)C)C(c2cc(Br)ccc2F)C(C(=O)OC(C)(C)C)=C(C)N1 [Example 3-42]
[1]
  concentration of Aβ1-40 compared to control: decreased

## CC1=C(C(=O)OC(C)(C)C)C(c2ccccc2Br)C(C(=O)OC(C)(C)C)=C(C)N1 [Example 2-32, Di-tert-butyl 4-(2-bromophenyl)-1,4-dihydro-2,6-dimethylpyridine-3,5-dicarboxylate]
[1]
  concentration of Aβ1-40 or Aβ1-42 compared to control: decreased

## CCOC(=O)C1=C(C)NC(C)=C(C(=O)OCC)C1c1cc(Br)ccc1F [Example 3-41, Diethyl 4-(5-bromo-2-fluorophenyl)-1,4-dihydro-2,6-dimethylpyridine-3,5-dicarboxylate]
[1]
  concentration of Aβ1-40 compared to control: decreased

## CCOC(=O)C1=C(C)NC(C)=C(C(=O)OCC)C1c1ccccc1Br [Example 2-23, Diethyl 4-(2-bromophenyl)-1,4-dihydro-2,6-dimethylpyridine-3,5-dicarboxylate]
[1]
  concentration of Aβ1-40 or Aβ1-42 compared to control: decreased

## CC1=C(C(=O)OC(C)(C)C)C(c2cccc(F)c2F)C(C(=O)OC(C)(C)C)=C(C)N1 [Example 3-23]
[1]
  concentration of Aβ1-40 compared to control: decreased

## CCOC(=O)C1=C(C)NC(C)=C(C(=O)OC)C1c1cccc([N+](=O)[O-])c1 (centres unmarked) [nitrendipine]
[2]; 30 μM (FIG. 3)
  concentration of Aβ1-40 compared to controls: significantly decreased
  concentration of total β-amyloid compared to controls: significantly decreased
[2]; [4]
  concentration of Aβ1-40 compared to controls: significantly decreased
[2]; [5]
  concentration of Aβ1-40 compared to controls: significantly decreased

## CC1=C(C(=O)OC(C)(C)C)C(c2ccc(Br)cc2F)C(C(=O)OC(C)(C)C)=C(C)N1 [Example 3-34, Di-tert-butyl 4-(4-bromo-2-fluorophenyl)-1,4-dihydro-2,6-dimethylpyridine-3,5-dicarboxylate]
[1]
  concentration of Aβ1-40 compared to control: decreased

## CC(C)(C)c1cc(C=C(C#N)C#N)cc(C(C)(C)C)c1O [tyrphostin A9]
[2]; 20 μM (FIG. 2)
  concentration of Aβ1-40 compared to controls: significantly decreased
  concentration of Aβ1-42 compared to controls: significantly decreased
  concentration of total β-amyloid compared to controls: significantly decreased

## CC1=C(C(=O)OC(C)(C)C)C(c2ccccc2[N+](=O)[O-])C(C(=O)OC(C)(C)C)=C(C)N1 [Example 2-33, Di-tert-butyl 1,4-dihydro-2,6-dimethyl-4-(2-nitrophenyl)pyridine-3,5-dicarboxylate]
[1]
  concentration of Aβ1-40 or Aβ1-42 compared to control: decreased

## CCOC(=O)C1=C(C)NC(C)=C(C(=O)OCC)C1c1cccc(F)c1F [Example 3-22]
[1]
  concentration of Aβ1-40 compared to control: decreased

## CC1=C(C(=O)OC(C)(C)C)C(c2ccccc2F)C(C(=O)OC(C)(C)C)=C(C)N1 [Example 2-28, Di-tert-butyl 4-(2-fluorophenyl)-1,4-dihydro-2,6-dimethylpyridine-3,5-dicarboxylate]
other
  melting point: 201 to 202 °C
[1]
  concentration of Aβ1-40 or Aβ1-42 compared to control: decreased

## C#CCN1C(C)=C(C(=O)OC)C(c2cccc([N+](=O)[O-])c2)C(C(=O)OCC)=C1C (centres unmarked) [MRS 1845, N-propargylnitrendipine]
[2]; 30 μM (FIG. 3)
  concentration of Aβ1-40 compared to controls: significantly decreased
  concentration of total β-amyloid compared to controls: significantly decreased

## CN(C)C(=O)C(CCN1CCC(O)(c2ccc(Cl)cc2)CC1)(c1ccccc1)c1ccccc1 [loperamide]
[2]; 30 μM (FIG. 4)
  concentration of Aβ1-40 compared to controls: significantly decreased
  concentration of Aβ1-42 compared to controls: significantly decreased
  concentration of total β-amyloid compared to controls: significantly decreased

## COCCOC(=O)C1=C(C)NC(C)=C(C(=O)OCCOC)C1c1cccc(Br)c1 [Example 3-37]
[1]
  concentration of Aβ1-40 compared to control: decreased

## Clc1ccc(C(c2ccc(Cl)cc2)[n+]2ccn(CC(OCc3ccc(Cl)cc3Cl)c3ccc(Cl)cc3Cl)c2)cc1.[Cl-] (stereo not drawn) [Example R24571, 1-[bis(p-chlorophenyl)methyl]-3-[2-(2,4-di-chloro-β-(2,4-dichlorobenzyl-oxy)phenethyl)]-imidazolium chloride]
[2]; 5 μM (FIG. 4)
  concentration of Aβ1-40 compared to controls: significantly decreased
  concentration of total β-amyloid compared to controls: significantly decreased

## COCCOC(=O)C1=C(C)NC(C)=C(C(=O)OCCOC)C1c1ccc(Br)cc1 [Example 3-38, Bis(2-methoxyethyl) 4-(4-bromophenyl)-1,4-dihydro-2,6-dimethylpyridine-3,5-dicarboxylate]
[1]
  concentration of Aβ1-40 compared to control: decreased

## CC(C)Cc1ccc(C(C)C(=O)O)cc1 (centres unmarked) [ibuprofen]
[3]
  β-amyloid deposits, astrocytosis, and dystrophic neurites: reduction

## COC(=O)C1=C(C#N)NC(C)=C(C(=O)OC(C)C)C1c1cccc([N+](=O)[O-])c1 (centres unmarked) [nilvadipine]
[2]; 30 μM (FIG. 3)
  concentration of Aβ1-40 compared to controls: significantly decreased
  concentration of total β-amyloid compared to controls: significantly decreased
[2]; 30 μM, 24 hours (FIG. 1B)
  concentration of Aβ1-40 compared to controls: significantly decreased
[2]; [4]
  concentration of Aβ1-40 compared to controls: significantly decreased
[2]; [5]
  concentration of Aβ1-40 compared to controls: significantly decreased

## CCOC(=O)C1=C(C)NC(C)=C(C(=O)OCC)C1c1ccccc1F [Example 2-27, Diethyl 4-(2-fluorophenyl)-1,4-dihydro-2,6-dimethylpyridine-3,5-dicarboxylate]
[1]
  concentration of Aβ1-40 or Aβ1-42 compared to control: decreased

## CCOC(=O)C1=C(C)NC(C)=C(C(=O)OCC)C1c1ccc(Br)cc1F [Example 3-33]
[1]
  concentration of Aβ1-40 compared to control: decreased
